Reference: patent US10131652B2, “Pyrimidinyloxy benzene derivatives as herbicides” (E. I. DU PONT DE NEMOURS AND COMPANY, priority 2014, dated 2018)

Tests used:
Assay type in all cases: in vivo
[1] = tested on: wheat (Triticum aestivum); assay: Test B pre-/postemergence plant response
Method in brief: (§1)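 Evaluation is visual, about 10 days after application, rating injury from 0 (none) to 100 (complete control) relative to untreated controls. Application was a preemergence soil spray on seeded pots or a postemergence spray on one- to two-leaf plants.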

[2] = tested on: ragweed (common ragweed, Ambrosia elatior); assay: Test B pre-/postemergence plant response
Method in brief: as §1

[3] = tested on: pigweed (Amaranthus retroflexus); assay: Test B pre-/postemergence plant response
Method in brief: as §1

[4] = tested on: barnyardgrass (Echinochloa crus-galli); assay: Test B pre-/postemergence plant response
Method in brief: as §1

[5] = tested on: kochia (Kochia scoparia); assay: Test B pre-/postemergence plant response
Method in brief: as §1

[6] = tested on: giant foxtail (Setaria faberii); assay: Test B pre-/postemergence plant response
Method in brief: as §1

[7] = tested on: corn (Zea mays); assay: Test B pre-/postemergence plant response
Method in brief: as §1

[8] = tested on: Italian ryegrass (Lolium multiflorum); assay: Test B pre-/postemergence plant response
Method in brief: as §1

[9] = tested on: galium (catchweed bedstraw, Galium aparine); assay: Test B postemergence plant response
Method in brief: (§2)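 Values are visual control ratings (0 to 100) recorded approximately 10 days after postemergence application to greenhouse-grown plants of 2 to 10 cm, one- to two-leaf stage, each judged against untreated controls.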

[10] = tested on: blackgrass (Alopecurus myosuroides); assay: Test B postemergence plant response
Method in brief: as §2

[11] = tested on: rice (Oryza sativa); assay: Test C flooded paddy test plant response; conditions: Flood, 250 g ai/ha; scale of 0 to 100 where 0 is no effect and 100 is complete control; 13 to 15 days
Method in brief: (§3)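 Scored visually on a 0–100 scale (100 = complete control) against untreated plants 13 to 15 days after treatment in the greenhouse. Compounds went into paddy water of pots flooded to 3 cm, holding 2-leaf-stage plants.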

[12] = tested on: ducksalad (Heteranthera limosa); assay: Test C flooded paddy test plant response; conditions: Flood, 250 g ai/ha; scale of 0 to 100 where 0 is no effect and 100 is complete control; 13 to 15 days
Method in brief: as §3

[13] = tested on: barnyardgrass (Echinochloa crus-galli); assay: Test C flooded paddy test plant response; conditions: Flood, 250 g ai/ha; scale of 0 to 100 where 0 is no effect and 100 is complete control; 13 to 15 days
Method in brief: as §3

[14] = tested on: small-flower umbrella sedge (Cyperus difformis); assay: Test C flooded paddy test plant response; conditions: Flood, 250 g ai/ha; scale of 0 to 100 where 0 is no effect and 100 is complete control; 13 to 15 days
Method in brief: as §3

[15] = 125 g ai/ha, postemergence, 0 to 100 scale, 0 no effect, 100 complete control
[16] = Postemergence, 31 g ai/ha, 0 to 100 scale (0 no effect, 100 complete control)
[17] = 31 g ai/ha, Preemergence, 0 to 100 scale where 0 is no effect and 100 is complete control
[18] = Preemergence, 125 g ai/ha, 0 to 100 scale (0 no effect, 100 complete control)

| Compound | Plant response rating, Wheat [1, 15] | Plant response rating, Wheat [1, 16] | Plant response rating, Ragweed [2, 17] | Plant response rating, Ragweed [2, 15] | Plant response rating, Ragweed [2, 16] | Ragweed plant response rating [2, 18] | Plant response rating, Pigweed [3, 17] | Plant response rating, Pigweed [3, 15] | Plant response rating, Pigweed [3, 16] | Pigweed plant response rating [3, 18] | Plant response rating, Barnyardgrass [4, 17] | Plant response rating, Barnyardgrass [4, 15] | Plant response rating, Barnyardgrass [4, 16] | Barnyardgrass plant response rating [4, 18] | Plant response rating, Kochia [5, 17] | Plant response rating, Kochia [5, 15] | Plant response rating, Kochia [5, 16] | Kochia plant response rating [5, 18] | Plant response rating, Foxtail, Giant [6, 17] | Plant response rating, Foxtail, Giant [6, 15] | also measured |
| --- | --- | --- | --- | --- | --- | --- | --- | --- | --- | --- | --- | --- | --- | --- | --- | --- | --- | --- | --- | --- | --- |
| Fc1cnc(Oc2ccccc2-c2cnccn2)nc1 [Compound 164] | 0 | 0 | 0 | 30 | 20 | 0 | 0 | 30 | 0 | 30 | 0 | 0 | 0 | 0 | 0 | 0 | 0 | 0 | 0 | 0 | Plant response rating, Foxtail, Giant [6, 16]: 0; Foxtail, Giant plant response rating [6, 18]: 0; Plant response rating, Corn [7, 15]: 0; Plant response rating, Corn [7, 16]: 0; Plant response rating, Ryegrass, Italian [8, 17]: 0; Plant response rating, Ryegrass, Italian [8, 15]: 0; Plant response rating, Ryegrass, Italian [8, 16]: 0; Ryegrass, Italian plant response rating [8, 18]: 0; Plant response rating, Galium [9, 15]: 30; Plant response rating, Galium [9, 16]: 10; Plant response rating, Blackgrass [10, 15]: 0; Plant response rating, Blackgrass [10, 16]: 0; Rice plant response rating [11]: 0; Ducksalad plant response rating [12]: 0; Barnyardgrass plant response rating [13]: 0; Sedge, Umbrella plant response rating [14]: 0 |
| FC(F)c1ccc(-c2ccccc2Oc2ncc(Cl)cn2)o1 [Compound 239] | 0 | 0 | 0 | 0 | 0 | 0 | 0 | 20 | 0 | 0 | 0 | 0 | 0 | 0 | 0 | 0 | 0 | 0 | 0 | 0 | Plant response rating, Foxtail, Giant [6, 16]: 0; Foxtail, Giant plant response rating [6, 18]: 0; Plant response rating, Corn [7, 15]: 20; Plant response rating, Corn [7, 16]: 0; Plant response rating, Ryegrass, Italian [8, 17]: 0; Plant response rating, Ryegrass, Italian [8, 15]: 0; Plant response rating, Ryegrass, Italian [8, 16]: 0; Ryegrass, Italian plant response rating [8, 18]: 0; Plant response rating, Galium [9, 15]: 0; Plant response rating, Galium [9, 16]: 0; Plant response rating, Blackgrass [10, 15]: 0; Plant response rating, Blackgrass [10, 16]: 0; Rice plant response rating [11]: 0; Ducksalad plant response rating [12]: 0; Barnyardgrass plant response rating [13]: 0; Sedge, Umbrella plant response rating [14]: 0 |
